The series deals with HepG2 (ATCC HB-8065) cells. The series is described as follows: Cytotoxicity assay (PrestoBlue). Type of series: cell-based, Human. The following applies: Table 1 and text; 24 h incubation; read-out: CC50 (µM) HepG2.

Description: Human HeLa epithelial (ATCC CCL-2) and HepG2 liver epithelial (ATCC HB-8065) cell lines were used to determine toxicity of AT compounds for mammalian cells. The cells were grown in a complete culture medium of RPMI 1640 with 10% heat-inactivated fetal bovine serum (FBS) at 37 °C in 5% CO2 (95% room air) in a humidified incubator. Before use, attached cell monolayers, which had reached at least 90% confluency, were detached by trypsinization with trypsin-EDTA (0.25%) and resuspension in fresh complete culture media. For experiments, the stock concentration of 1 × 10^5 cells/mL (to achieve a final 1 × 10^4 cells/well concentration) was achieved by counting the trypsinized cells and adjusting to their final concentration for assays.
HeLa or HepG2 cells were pre-seeded into a 96-well transparent, flat bottom plate by adding a volume of 100 µL stock cell concentration (1 × 10^5 cells/mL) in complete culture media to each well. The plate was incubated overnight at 37 °C in a 5% CO2 (95% room air) humidified incubator. After the incubation and before mixing in the AT compounds, a 100 µL volume of fresh complete culture media was added to the pre-seeded wells. The 2-fold dilutions of AT compounds in triplicates were prepared on a separate 96-well plate. Once the dilution plate was prepared, dilutions were transferred into the pre-seeded plate to achieve the same concentrations of ATs as for the inhibition assay described above. The final inoculated plate was then returned to the 5% CO2 (95% room air) humidified incubator for an additional 24 h of incubation with the diluted ATs. Controls were blank wells containing only media, wells with cells and DMSO in complete culture media, and wells with cells and complete culture media only. Measurement of toxicity was analogous to the inhibition assay except that 20 µL of PrestoBlue^TM was used and the incubation was 3–6 h before reading with the plate-reader. Cytotoxicity concentration (CC50) was defined as the concentration where half of the cells remained viable and was computed using GraphPad Prism.

As to `O=C(c1ccccc1O)c1n[nH]nc1-c1ccc(Cl)cc1` [AT106], the CC50 (commonly the concentration giving 50% cytotoxicity) was found to be 70.7 µM.

For the origin of these results see paper PMC10525585, “Evaluation of the Antibacterial Effect of Aurone-Derived Triazoles on Staphylococcus aureus” (Antibiotics, 2023).
